Assay results as given in ChEMBL document CHEMBL1144266, “Synthesis and biological evaluation of 3-benzyl-1-methyl- and 1-methyl-3-phenyl-isothioureas as potential inhibitors of iNOS” (2005).

Legend:
Type in all cases: functional, Mus musculus
J774.A1 [1] = assay: Percent inhibition of nitrite release in lipopolysaccharide (LPS) treated J774.A1 macrophage cell lines at concentration of 1E-3 M
J774.A1 [2] = assay: Percent inhibition of nitrite release in lipopolysaccharide (LPS) treated J774.A1 macrophage cell lines at concentration of 1E-5M
J774.A1 [3] = assay: Percent inhibition of nitrite release in lipopolysaccharide (LPS) treated J774.A1 macrophage cell lines at concentration of 1E-6M
J774.A1 [4] = assay: Percent inhibition of nitrite release in lipopolysaccharide (LPS) treated J774.A1 macrophage cell lines at concentration of 1E-7M
J774.A1 [5] = assay: Percent inhibition of nitrite release in lipopolysaccharide (LPS) treated J774.A1 macrophage cell lines at concentration of 1E-8M

| Structure (SMILES) | Inhibition (J774.A1 [1]) | Inhibition (J774.A1 [2]) | Inhibition (J774.A1 [3]) | Inhibition (J774.A1 [4]) | Inhibition (J774.A1 [5]) |
| --- | --- | --- | --- | --- | --- |
| CCCS/C(=N\C)Nc1ccc(F)cc1 | 53.45% | 10.67% | 4% |  |  |
| CCCS/C(=N\C)Nc1ccc(Cl)cc1 | 50.04% | 5.08% | 1.1% |  |  |
| CCCS/C(=N\C)Nc1ccccc1F | 65.61% | 11.26% | 4.15% |  |  |
| CN/C(=N\c1ccccc1Cl)SC | 21.32% | 4.67% | 2.9% |  |  |
| C/N=C(/Nc1cccc(Cl)c1)SC(C)C | 46.9% | 8% | 7.09% |  |  |
| CN/C(=N/Cc1ccccc1)SC |  | -54.53% | -9.54% | -5.96% | -2.65% |
| CCCS/C(=N\C)Nc1ccc(C)cc1 | 83.42% | 2.08% | 1.54% |  |  |
| CCS/C(=N\C)Nc1ccccc1 | 76.76% | 2.67% | 1.67% |  |  |
| CCS/C(=N\C)Nc1ccc(F)cc1 | 60.56% | 9.45% | 5.98% |  |  |
| CCS/C(=N\C)Nc1ccccc1Cl | 19.55% | 10.21% | 2.9% |  |  |
| CN/C(=N\c1ccc(Cl)cc1)SC | 69.05% | 7.55% | 2.9% |  |  |
| CCCS/C(=N\C)Nc1ccccc1 | 65.78% | 15.7% | 4.65% |  |  |
| C/N=C(/Nc1cccc(F)c1)SC(C)C | 66.98% | 10.04% | 4.23% |  |  |
| C/N=C(/Nc1ccccc1Cl)SC(C)C | 16.21% | 8.69% | 3.21% |  |  |
| CCS/C(=N\C)Nc1ccc(Cl)cc1 | 54.05% | 10.45% | 0.5% |  |  |
| CCS/C(=N\C)Nc1ccc(C)cc1 | 56.82% | 0% | 0% |  |  |
| C/N=C(/Nc1ccc(Cl)cc1)SC(C)C | 48.09% | 7.09% | 8.21% |  |  |
| CCS/C(=N\C)Nc1cccc(F)c1 | 59.45% | 10.21% | 6.23% |  |  |
| C/N=C(/Nc1ccccc1C)SC(C)C | 85.21% | 18.78% | 13.56% |  |  |
| CN/C(=N\c1ccccc1F)SC | 52.45% | 6.01% | 1.56% |  |  |
| CN/C(=N\c1ccccc1C)SC | 75.1% | 17.45% | 8.32% |  |  |
| C/N=C(/Nc1ccccc1)SC(C)C | 81.5% | 19.75% | 13.21% |  |  |

| Structure (SMILES) | Inhibition (J774.A1 [1]) | Inhibition (J774.A1 [2]) | Inhibition (J774.A1 [3]) | Inhibition (J774.A1 [4]) | Inhibition (J774.A1 [5]) |
| --- | --- | --- | --- | --- | --- |
| CCCS/C(=N\C)Nc1ccccc1C | 81.01% | 11.45% | 8.12% |  |  |
| CN/C(=N\c1cccc(F)c1)SC | 66.9% | 9.34% | 5.23% |  |  |
| C/N=C(/Nc1ccccc1F)SC(C)C | 67.71% | 9.91% | 2.76% |  |  |
| C/N=C(/Nc1cccc(C)c1)SC(C)C | 68.77% | 18.55% | 19.89% |  |  |
| C/N=C(/Nc1ccc(F)cc1)SC(C)C | 61.45% | 9.03% | 4.76% |  |  |
| CCS/C(=N\C)NCc1ccccc1 |  | -26.84% | -23.65% | -2.41% | -7.28% |
| CN/C(=N\c1ccccc1)SC | 65% | 8.65% | 5.1% |  |  |
| CCS/C(=N\C)Nc1ccccc1C | 65.21% | 15.33% | 7.44% |  |  |
| CCCS/C(=N\C)Nc1cccc(F)c1 | 53.91% | 11.11% | 7% |  |  |
| CCCS/C(=N\C)Nc1ccccc1Cl | 11.45% | 9.55% | 1.1% |  |  |
| CCS/C(=N\C)Nc1cccc(C)c1 | 81.03% | 14.02% | 6.79% |  |  |
| CCCS/C(=N\C)NCc1ccccc1 |  | -39.58% | -33.71% | -31.36% | -7.96% |
| COC(=O)[C@@H](N)CCCNC(=N)N[N+](=O)[O-] [L-NAME] | 69.49% | 20.37% | 12.8% |  |  |
| C/N=C(/Nc1ccc(C)cc1)SC(C)C | 73.14% | 28.11% | 39.8% |  |  |
| CN/C(=N\c1ccc(C)cc1)SC | 67.8% | 18.1% | 4.67% |  |  |
| CCCS/C(=N\C)Nc1cccc(Cl)c1 | 58.45% | 9.34% | 5.01% |  |  |
| CCCS/C(=N\C)Nc1cccc(C)c1 | 78.34% | 12.09% | 8.31% |  |  |
| CN/C(=N\c1cccc(Cl)c1)SC | 45.38% | 12.33% | 4.06% |  |  |
| CCS/C(=N\C)Nc1ccccc1F | 40.01% | 9.76% | 3.02% |  |  |
| CCS/C(=N\C)Nc1cccc(Cl)c1 | 41.56% | 11.56% | 3.44% |  |  |
| CN/C(=N\c1cccc(C)c1)SC | 75% | 15.34% | 7.03% |  |  |
